Converted amounts (≈) assume the structure as drawn. Like-named read-outs stand apart in the source and are kept apart here.
How the values were obtained:
[1] = test system: Elizabethkingia anophelis; test: Broth microdilution (BMD) MIC; format: cell-based; details: for MIC: Elizabethkingia anophelis; for susceptibility category: all susceptibility tests, CLSI criteria for Enterococcus spp. (susceptible MIC <= 4 mg/L, zone >= 17 mm)
Text: Eighteen E. anophelis clinical isolates from the nationwide surveillance program (Taiwan Surveillance of Antimicrobial Resistance) were well characterized in our previous study ([7]) and were selected for susceptibility testing and minimum bactericidal concentration (MBC) assays. Among them, five isolates with different clonality (underlined strains in Fig. S1) were selected for the time-kill assays and in vivo experiments.
Broth microdilution, disc diffusion, Etest, and agar dilution assays were conducted following CLSI guidelines to determine vancomycin MICs ([8]). […] Criteria for Staphylococcus spp. were not adopted due to the lack of a zone diameter breakpoint. MBCs were determined following CLSI guidelines ([8]).

[2] = test system: Elizabethkingia anophelis; test: Murine pneumonia model; format: in vivo, C57BL/6J mice; details: for survival of infected mice: 8 mice per group
Protocol: (§1) In vivo efficacy was assessed by wax moth (Galleria mellonella), murine pneumonia, and murine thigh infection models following the protocols of our previous study ([2]). The Animal Ethics Committee of Taiwan’s National Health Research Institutes approved the murine pneumonia and thigh infection models.
For the pneumonia model, a bacterial suspension was mixed with 5% mucin from porcine stomach (type 3; Sigma-Aldrich, Saint Louis, USA). Seven-week-old C57BL/6J mice were anesthetized with isoflurane for 10 min. For each strain, the inoculum corresponded to the lowest dose that caused >80% mortality in preliminary testing. This inoculum (10⁶–10⁸ cfu, depending on strain) was delivered intratracheally to induce pneumonia. Two hours thereafter, mice received either high or human-equivalent doses of subcutaneous vancomycin (100 mg/kg or 25 mg/kg, respectively) or intraperitoneal teicoplanin (50 mg/kg) ([17]) twice daily for 3 days. Each group contained eight mice, and survival was monitored for 3 days.

[3] = test system: Elizabethkingia anophelis; test: Galleria mellonella (wax moth) infection survival model; format: in vivo
Protocol: as §1
G. mellonella was reared at the National Health Research Institutes of Taiwan. Caterpillars in the final instar larval stage (weight ca. 250 mg) were used. […] A 10 µL aliquot of E. anophelis at the predetermined lethal dose was injected into the hemocoel of each caterpillar via the last left proleg. Antibiotics were administered once into another proleg at the indicated time points; vancomycin (5, 10, or 20 mg/kg, 2 h post-inoculation); other glycopeptides (teicoplanin, 10 mg/kg, 30 min post-inoculation; dalbavancin, 8.75 mg/kg, 2 h post-inoculation; oritavancin, 15 mg/kg, 1 h post-inoculation) ([11][–][13]); or daptomycin (10 mg/kg, 2 h post-inoculation) ([13]). Each treatment group contained 6–8 caterpillars. A control group injected with sterile PBS was included to monitor for trauma-related mortality. Caterpillars were incubated at 37°C, and survival was recorded twice daily for 72 h.

[4] = test system: E. ursingii; test: Broth microdilution MIC of laboratory-induced mutants; format: cell-based
Protocol: (§2) E. anophelis and non-anophelis species with baseline vancomycin MICs of 16–32 mg/L (Table 2) were well characterized in our previous study ([7]) and were included in the induction study. The induction of mutants with elevated vancomycin MICs was modified from a previous study ([18]). Briefly, 10^9 cfu of wild-type E. anophelis (2008S01-229) was plated on brain heart infusion agar (Becton Dickinson, Franklin Lakes, NJ, USA) with twofold multiples of vancomycin (32 –256 mg/L). Isolates from viable colonies were subjected to broth microdilution. Genomic comparison between the parental strain (2008S01-229) and elevated-MIC mutants was performed to identify the mutated gene conferring increased vancomycin MIC. To determine whether similar genetic changes occurred in other Elizabethkingia species, non-anophelis isolates were subjected to the same induction protocol. The corresponding target genes were then analyzed by Sanger sequencing to assess the presence of analogous mutations. The target gene related to elevated vancomycin MICs was also validated via scarless gene editing.

[5] = test system: E. miricola; test: as above; format: cell-based
Protocol: as §2

[6] = test system: E. meningoseptica; test: as above; format: cell-based; details: Elizabethkingia meningoseptica
Protocol: as §2

[7] = test system: E. bruuniana; test: as above; format: cell-based
Protocol: as §2

[8] = test system: E. anophelis; test: Broth microdilution MIC of laboratory-induced and gene-edited mutants; format: cell-based, Elizabethkingia anophelis; details: for MIC: Elizabethkingia anophelis
Protocol: as §2
The suicide plasmid pUT-ermF, which contains two key selection markers: the ermF gene for erythromycin resistance and the sacB gene for sucrose sensitivity-based counterselection, was used as previously described ([19]). DNA fragments corresponding to the upstream and downstream flanking regions of the target gene were cloned into pUT-ermF. The recombinant plasmids were first introduced into E. coli S17–λpir and subsequently transferred into Elizabethkingia spp. via conjugation. The first recombination events were selected on LB agar containing 250 µg/mL erythromycin, and the second recombination (plasmid resolution) was selected by plating on LB agar with 10% sucrose (without NaCl). Colonies were screened and confirmed by PCR sequencing. Genome sequencing was carried out to confirm no other inadvertent changes.

Q: How did the “MICs, range over isolates” value ([1]; 18 E. anophelis isolates, broth microdilution, concordant with agar dilution and Etest) turn out when CN[C@H](CC(C)C)C(=O)N[C@H]1C(=O)N[C@@H](CC(N)=O)C(=O)N[C@H]2C(=O)N[C@H]3C(=O)N[C@H](C(=O)N[C@H](C(=O)O)c4cc(O)cc(O)c4-c4cc3ccc4O)[C@H](O)c3ccc(c(Cl)c3)Oc3cc2cc(c3O[C@@H]2O[C@H](CO)[C@@H](O)[C@H](O)[C@H]2O[C@H]2C[C@](C)(N)[C@H](O)[C@H](C)O2)Oc2ccc(cc2Cl)[C@H]1O [Vancomycin] was run?
A: Its value is 16 to 32 mg/L.

Q: What about the MIC ([1]; read-out: MIC, BMD, E. anophelis clinical isolate 2008N05-106) of the same molecule?
A: The MIC was 32 µg/mL (≈ 22.1 µM).

Q: What about the MIC ([1]; read-out: MIC, BMD, E. anophelis clinical isolate 2008S01-229) of the same molecule?
A: The MIC was 32 µg/mL (≈ 22.1 µM).

Q: What about the MIC ([1]; read-out: MIC, BMD, E. anophelis clinical isolate 2014C06-157) of the same molecule?
A: The MIC was 32 µg/mL (≈ 22.1 µM).

Q: What about the MIC ([1]; read-out: MIC, BMD, E. anophelis clinical isolate 2016N17-576) of the same molecule?
A: The MIC was 32 µg/mL (≈ 22.1 µM).

Q: What about the MIC ([1]; read-out: MIC, BMD, E. anophelis clinical isolate 2018C04-213) of the same molecule?
A: The MIC was 16 µg/mL (≈ 11 µM).

Q: And the MIC ([1]; read-out: MIC, BMD, E. anophelis clinical isolate 2018C04-224)?
A: Its MIC is 16 µg/mL (≈ 11 µM).

Q: What about the MIC ([1]; read-out: MIC, BMD, E. anophelis clinical isolate 2018C07-210) of the same molecule?
A: Its MIC is 16 µg/mL (≈ 11 µM).

Q: What about the MIC ([1]; read-out: MIC, BMD, E. anophelis clinical isolate 2018C07-234) of the same molecule?
A: Its MIC is 16 µg/mL (≈ 11 µM).

Q: What about the MIC ([1]; read-out: MIC, BMD, E. anophelis clinical isolate 2018C08-127) of the same molecule?
A: Its MIC is 16 µg/mL (≈ 11 µM).

Q: And the MIC ([1]; read-out: MIC, BMD, E. anophelis clinical isolate 2018E03-151)?
A: Its MIC is 16 µg/mL (≈ 11 µM).

Q: What about the MIC ([1]; read-out: MIC, BMD, E. anophelis clinical isolate 2018E04-135) of the same molecule?
A: Its MIC is 16 µg/mL (≈ 11 µM).

Q: And the MIC ([1]; read-out: MIC, BMD, E. anophelis clinical isolate 2018N16-057)?
A: Its MIC is 16 µg/mL (≈ 11 µM).

Q: And the MIC ([1]; read-out: MIC, BMD, E. anophelis clinical isolate 2018N17-036)?
A: The MIC was 32 µg/mL (≈ 22.1 µM).

Q: And the MIC ([1]; read-out: MIC, BMD, E. anophelis clinical isolate 2018N17-073)?
A: Its MIC is 16 µg/mL (≈ 11 µM).

Q: What about the MIC ([1]; read-out: MIC, BMD, E. anophelis clinical isolate 2018N17-153) of the same molecule?
A: Its MIC is 16 µg/mL (≈ 11 µM).

Q: And the MIC ([1]; read-out: MIC, BMD, E. anophelis clinical isolate 2018N21-226)?
A: The MIC was 16 µg/mL (≈ 11 µM).

Q: What about the MIC ([1]; read-out: MIC, BMD, E. anophelis clinical isolate 2018S09-023) of the same molecule?
A: Its MIC is 16 µg/mL (≈ 11 µM).

Q: What about the MIC ([1]; read-out: MIC, BMD, E. anophelis clinical isolate 2018S11-172) of the same molecule?
A: The MIC was 32 µg/mL (≈ 22.1 µM).

Q: What about the MIC ([1]; read-out: MICs as summarised in the discussion, E. anophelis, isolates not specified) of the same molecule?
A: The MIC was 32 µg/mL (≈ 22.1 µM).

Q: What about the susceptibility category [1] of the same molecule?
A: Its susceptibility category is “non-susceptible”.

Q: What about the susceptibility category ([1]; listed as vancomycin) of the same molecule?
A: The susceptibility category was “resistant”.

Q: What about the “survival of infected mice” value ([2]; 25 mg/kg subcutaneous twice daily for 3 days, from 2 h after intratracheal inoculation, all clinical strains except 2014C06-157) of the same molecule?
A: The value was “significantly improved the survival or delayed death”.

Q: What about the “in vivo efficacy against one isolate” value ([2]; 25 mg/kg, one isolate with similar MIC (2014C06-157)) of the same molecule?
A: Its value is “ineffective”.

Q: And the “survival of infected mice” value ([2]; 100 mg/kg subcutaneous twice daily for 3 days)?
A: Its value is “conferred a survival benefit”.

Q: And the “improvement of murine survival” value ([2]; 100 mg/kg twice daily, infection by 2008S01-229-VAN-R compared to 2008S01-229)?
A: Its value is “hampered”.

Q: And the “survival of infected wax moths” value ([3]; 10 mg/kg once, 2 h post-inoculation, five E. anophelis isolates, 72 h, 37°C, 6-8 caterpillars per group)?
A: The value was “improved the survival”.

Q: And the “improvement of larval survival” value ([3]; 10 mg/kg, infection by 2008S01-229-VAN-R compared to 2008S01-229)?
A: The value was “hampered”.

Q: And the “dose dependence of survival of infected wax moths” value ([3]; 5, 10 and 20 mg/kg once, 2 h post-inoculation, two clinical isolates)?
A: Its value is “dose-dependent effect”.

Q: And the MIC [4]?
A: Its MIC is 256 µg/mL.

Q: And the MIC ([4]; wild-type E. ursingii parent strain, read-out: Parent strain MIC)?
A: Its MIC is 32 µg/mL.

Q: What about the MIC ([4]; {}) of the same molecule?
A: Its MIC is 256 µg/mL.

Q: And the MIC [5]?
A: Its MIC is 512 µg/mL.

Q: And the MIC ([5]; wild-type E. miricola parent strain, read-out: Parent strain MIC)?
A: The MIC was 32 µg/mL.

Q: And the MIC ([6]; induced E. meningoseptica mutants, pbp4 827DelA, Frameshift, 2 isolates, one value each)?
A: The MIC was 64 µg/mL.

Q: What about the MIC ([6]; wild-type E. meningoseptica parent strain, read-out: Parent strain MIC) of the same molecule?
A: The MIC was 16 µg/mL.

Q: And the MIC [7]?
A: Its MIC is 256 µg/mL.

Q: What about the MIC ([7]; wild-type E. bruuniana parent strain, read-out: Parent strain MIC) of the same molecule?
A: The MIC was 16 µg/mL.

Q: And the MIC ([8]; induced E. anophelis mutant, pbp4 692InsC, Frameshift, 1 isolate)?
A: Its MIC is 512 µg/mL.

Q: What about the MIC ([8]; induced E. anophelis mutant, pbp4 736Del8bp, Frameshift, 1 isolate) of the same molecule?
A: Its MIC is 512 µg/mL.

Q: And the MIC ([8]; induced E. anophelis mutant, pbp4 827DelA, Frameshift, 1 isolate)?
A: Its MIC is 128 µg/mL.

Q: What about the MIC ([8]; scarless deletion of pbp4 in wild-type E. anophelis 2008N05-106, read-out: MIC) of the same molecule?
A: The MIC was > 512 µg/mL.

Q: What about the MIC ([8]; wild-type E. anophelis parent strain (2008S01-229), read-out: Parent strain MIC) of the same molecule?
A: The MIC was 32 µg/mL.

Q: And the “effect on MIC” value ([8]; replacement of exbD with Thr28Pro mutation in 2008N05-106)?
A: Its value is “did not affect the vancomycin MIC”.

From article PMC12584665, “In vitro and in vivo efficacy of vancomycin against Elizabethkingia species and the impact of increased vancomycin MICs” (Microbiology Spectrum, 2025)
